Legend:
Assay type in all cases: in vivo
[1] = Oral absorption in dogs: plasma level by HPLC, AUC; conditions: equimolar amount, in 0.5% aqueous methylcellulose solution, area under plasma level vs time curve
Description: (§1) The compound of Synthesis Example 1, the compound of Example 7, and the compound of Example 20 were suspended or dissolved in a 0.5% aqueous methylcellulose solution. The resultant solutions were orally administered in an equimolar amount to dogs and rats. After the administration, the amount of each compound contained in plasma of each animal individual was quantitatively determined by HPLC. The absorption in each specimen was assayed by the area under a medicament level of plasma vs time curve (AUC). As a result, AUCs obtained by the compounds of Examples 7 and 20 as prodrugs were 3 to 4 times higher for the dog and 3 to 7 times higher for the rat compared with the compound of Synthesis Example 1 as an activator body.

[2] = Oral absorption in rats: plasma level by HPLC, AUC; conditions: equimolar amount, in 0.5% aqueous methylcellulose solution, area under plasma level vs time curve
Description: as §1

[3] = tested on: ICR male mice; conditions: ICR male mice (5 weeks old), dose of 2 g/kg, suspension in 0.5% aqueous methylcellulose solution
Text: Acute Toxicity Test by Single Administration
The compound of Example 20 was homogeneously suspended in a 0.5% aqueous methylcellulose solution. The suspension was forcibly orally administered to ICR male mice (5 weeks old).

Structure (SMILES)	AUC Dog [1] [µM·h]	AUC Rat [2] [µM·h]	Survival and abnormality after single forced oral administration [3]
COc1cc2[nH]c(=O)c3nn(COC(=O)OC(C)C)nc3c(=O)c2cc1OC [Example 7, 2-(Isopropoxycarbonyloxymethyl)-7,8-dimethoxy-4(5H),10-dioxo-2H-1,2,3-triazolo[4,5-c][1]benzazepine]	0.9 ± 0.1	0.6 ± 0.1	–
COc1cc2[nH]c(=O)c3nn(C(OC(=O)OC(C)C)C(C)C)nc3c(=O)c2cc1OC (stereo not shown) [Example 20, 2-(1-Isopropoxycarbonyloxy-2-methylpropyl)-7,8-dimethoxy-4(5H),10-dioxo-2H-1,2,3-triazolo[4,5-c][1]benzazepine]	1.2 ± 0.3	1.4 ± 0.1	all the mice survived and developed no abnormality
COc1cc2[nH]c(=O)c3nn[nH]c3c(=O)c2cc1OC [Synthesis Example 1, 7,8-Dimethoxy-4(5H),10-dioxo-1H-1,2,3-triazolo[4,5-c][1]benzazepine, reference compound]	0.3 ± 0.1	0.2 ± 0.1	–
